Results: patent US20060069132A1, “Azolecarboxamide herbicides” (priority 2004, published 2006)

How the values were obtained:
large crabgrass = assay: Test B pre-/postemergence herbicide test; assay type: in vivo, Digitaria sanguinalis
Procedure, shortened: (§1)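 Seeds were planted and treated preemergence with compounds formulated in a non-phytotoxic solvent mixture containing surfactant, while plants at the 1- to 4-leaf stage (2 to 18 cm) received postemergence sprays. Flooded paddy plants were grown to the 2-leaf stage. After 13 to 15 days in a greenhouse, injury was visually rated 0–100 against untreated controls.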

[1] = tested on: smallflower umbrella sedge; assay: Test C flooded paddy test; assay type: in vivo, Cyperus difformis; details: for Plant response rating, Sedge, Umbrella: 500 g ai/ha, visual rating after 12 to 14 days
rice [2] = assay: Test C flooded paddy test; assay type: in vivo, Oryza sativa; details: for Plant response rating, Rice: 500 g ai/ha, visual rating after 12 to 14 days
Procedure, shortened: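 Postemergence sprays applied to plants 2 to 18 cm tall (1- to 4-leaf stage); paddy species grown to 2-leaf stage under flooding. After 12 to 14 days in greenhouse, visual rating versus untreated controls on 0–100 scale (0 no effect, 100 complete control).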

ducksalad [3] = assay: Test C flooded paddy test; assay type: in vivo, Heteranthera limosa; details: for Plant response rating, Ducksalad: 500 g ai/ha, visual rating after 12 to 14 days
cocklebur = assay: Test B pre-/postemergence herbicide test; assay type: in vivo, Xanthium strumarium
Procedure, shortened: (§2)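 Visual rating, 0 (no effect) to 100 (complete control), versus untreated controls after 13–15 d in greenhouse. Pre- and postemergence applications (postemergence plants 2–18 cm, 1–4 leaves); flooded paddy arm at 2-leaf stage. Compounds in non-phytotoxic solvent plus surfactant.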

barnyardgrass [4] = assay: Test B flooded paddy test; assay type: in vivo, Echinochloa crus-galli; details: 1000 g ai/ha, scale 0 to 100 (0 no effect, 100 complete control)
Procedure, shortened: (§3)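 Visual ratings, 0 (no effect) to 100 (complete control), made versus controls after 13–15 d greenhouse. Paddy plants treated at 2-leaf stage; postemergence plants at 1- to 4-leaf stage, 2–18 cm tall.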

corn = assay: Test B pre-/postemergence herbicide test; assay type: in vivo, Zea mays
Procedure, shortened: as §1

velvetleaf = assay: Test B pre-/postemergence herbicide test; assay type: in vivo, Abutilon theophrasti
Procedure, shortened: as §1

giant foxtail = assay: Test B pre-/postemergence herbicide test; assay type: in vivo, Setaria faberi
Procedure, shortened: as §1

barnyardgrass [5] = assay: Test C flooded paddy test; assay type: in vivo, Echinochloa crus-galli; details: for Plant response rating, Barnyardgrass: 500 g ai/ha, visual rating after 12 to 14 days
Procedure, shortened: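 Greenhouse test with a 12–14 day hold after application and visual comparison with controls. Emerged plants were 1- to 4-leaf stage (2–18 cm) when sprayed postemergence, and the paddy barnyardgrass was at 2 leaves under flooded conditions. 100 = complete control.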

wheat = assay: Test B postemergence herbicide test; assay type: in vivo, Triticum aestivum; design: key to Wheat plant response rating: 0 = no effect, 100 = complete control
Procedure, shortened: (§4)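 Formulated test chemicals went onto postemergence plants measuring 2 to 18 cm, at one to four leaves. For the paddy assay, species had reached two leaves. Scoring took place 13–15 days later by eye, relative to untreated plants, using 0 for no effect up to 100 for full control.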

rice [6] = assay: Test B pre-/postemergence herbicide test; assay type: in vivo, Oryza sativa; details: 0 = no effect, 100 = complete control, preemergence; for Rice plant response rating (0 to 100 scale): 125 g ai/ha; for Plant response rating, Rice: 500 g ai/ha, visual rating
Procedure, shortened: as §1

pigweed = assay: Test B pre-/postemergence herbicide test; assay type: in vivo, Amaranthus retroflexus
Procedure, shortened: as §1

barnyardgrass [7] = assay: Test B pre-/postemergence herbicide test; assay type: in vivo, Echinochloa crus-galli
Procedure, shortened: as §2

Surinam grass = assay: Test B pre-/postemergence herbicide test; assay type: in vivo, Urochloa decumbens
Procedure, shortened: as §1

wild oat = assay: Test B postemergence herbicide test; assay type: in vivo, Avena fatua
Procedure, shortened: as §4

blackgrass = assay: Test B postemergence herbicide test; assay type: in vivo, Alopecurus myosuroides
Procedure, shortened: as §3

morningglory = assay: Test B pre-/postemergence herbicide test; assay type: in vivo, Ipomoea coccinea
Procedure, shortened: as §2

lambsquarters = assay: Test B pre-/postemergence herbicide test; assay type: in vivo, Chenopodium album
Procedure, shortened: as §1

ducksalad [8] = assay: Test B flooded paddy test; assay type: in vivo, Heteranthera limosa; details: 1000 g ai/ha, scale 0 to 100 (0 no effect, 100 complete control)
Procedure, shortened: as §3

[9] = tested on: small flower umbrella sedge; assay: Test B flooded paddy test; assay type: in vivo, Cyperus difformis; details: 1000 g ai/ha, scale 0 to 100 (0 no effect, 100 complete control)
Procedure, shortened: as §3

rice [10] = assay: Test B flooded paddy test; assay type: in vivo, Oryza sativa; details: 1000 g ai/ha, scale 0 to 100 (0 no effect, 100 complete control)
Procedure, shortened: as §3

[11] = 125 g ai/ha; 0 = no effect, 100 = complete control; preemergence
[12] = 125 g ai/ha; visual rating, scale 0 (no effect) to 100 (complete control); postemergence
[13] = 500 g ai/ha; visual rating, 0 = no effect, 100 = complete control; preemergence
[14] = postemergence, 500 g ai/ha; scale 0 to 100, 0 is no effect, 100 is complete control
[15] = 125 g ai/ha, scale 0 to 100 (0 no effect, 100 complete control)
[16] = 250 g ai/ha, scale of 0 to 100, 0 is no effect, 100 is complete control
[17] = scale 0 to 100 (0 no effect, 100 complete control)
[18] = 62 g ai/ha, scale 0 to 100 (0 no effect, 100 complete control)
[19] = postemergence, 125 g ai/ha; visual rating, scale 0 (no effect) to 100 (complete control)
[20] = postemergence, 500 g ai/ha; visual rating, scale 0 (no effect) to 100 (complete control)

CCn1nc(C2(C)CC2)cc1C(=O)Nc1cccc(C(=O)N(C)C)c1 [Compound 303]
Crabgrass, Large plant response rating (0 to 100 scale) (large crabgrass; [11]): 100
Crabgrass, Large plant response rating (large crabgrass; [12]): 10
Plant response rating, Crabgrass, Large (large crabgrass; [13]): 100
Crabgrass, Large plant response rating (large crabgrass; [14]): 60
Sedge, Umbrella plant response rating ([1]; 62 g ai/ha, scale 0 to 100): 75
Sedge, Umbrella plant response rating [1, 15]: 85
Sedge, Umbrella plant response rating [1, 16]: 85
Plant response rating, Sedge, Umbrella [1, 17]: 90
Rice plant response rating (rice [2]; 62 g ai/ha, scale 0 to 100): 30
Rice plant response rating (rice [2]; [15]): 65
Rice plant response rating (rice [2]; [16]): 80
Plant response rating, Rice (rice [2]; [17]): 85
Ducksalad plant response rating (ducksalad [3]; 62 g ai/ha, scale 0 to 100): 55
Ducksalad plant response rating (ducksalad [3]; [15]): 75
Ducksalad plant response rating (ducksalad [3]; [16]): 80
Plant response rating, Ducksalad (ducksalad [3]; [17]): 85
Cocklebur plant response rating (0 to 100 scale) (cocklebur; [11]): 0
Cocklebur plant response rating (cocklebur; [12]): 10
Plant response rating, Cocklebur (cocklebur; [13]): 20
Cocklebur plant response rating (cocklebur; [14]): 30
Barnyardgrass plant response rating (barnyardgrass [4]): 90
Corn plant response rating (corn; [12]): 70
Plant response rating, Corn (corn; [13]): 70
Corn plant response rating (corn; [14]): 70
Velvetleaf plant response rating (velvetleaf; [12]): 30
Plant response rating, Velvetleaf (velvetleaf; [13]): 100
Velvetleaf plant response rating (velvetleaf; [14]): 70
Foxtail, Giant plant response rating (0 to 100 scale) (giant foxtail; [11]): 50
Foxtail, Giant plant response rating (giant foxtail; [12]): 50
Plant response rating, Foxtail, Giant (giant foxtail; [13]): 100
Foxtail, Giant plant response rating (giant foxtail; [14]): 50
Barnyardgrass plant response rating (barnyardgrass [5]; [18]): 30
Barnyardgrass plant response rating (barnyardgrass [5]; [15]): 45
Barnyardgrass plant response rating (barnyardgrass [5]; [16]): 80
Plant response rating, Barnyardgrass (barnyardgrass [5]; [17]): 95
Wheat plant response rating (wheat; [12]): 10
Wheat plant response rating (wheat; [14]): 20
Rice plant response rating (0 to 100 scale) (rice [6]): 70
Plant response rating, Rice (rice [6]): 80
Pigweed plant response rating (0 to 100 scale) (pigweed; [11]): 100
Pigweed plant response rating (pigweed; [12]): 70
Plant response rating, Pigweed (pigweed; [13]): 100
Pigweed plant response rating (pigweed; [14]): 90
Barnyardgrass plant response rating (0 to 100 scale) (barnyardgrass [7]; [11]): 70
Barnyardgrass plant response rating (barnyardgrass [7]; [12]): 40
Plant response rating, Barnyardgrass (barnyardgrass [7]; [13]): 90
Barnyardgrass plant response rating (barnyardgrass [7]; [14]): 40
Surinam Grass plant response rating (0 to 100 scale) (Surinam grass; [11]): 50
Surinam Grass plant response rating (Surinam grass; [12]): 10
Plant response rating, Surinam Grass (Surinam grass; [13]): 100
Surinam Grass plant response rating (Surinam grass; [14]): 20
Oat, Wild plant response rating (wild oat; [12]): 30
Oat, Wild plant response rating (wild oat; [14]): 40
Blackgrass plant response rating (blackgrass; [12]): 20
Blackgrass plant response rating (blackgrass; [14]): 40
Morningglory plant response rating (0 to 100 scale) (morningglory; [11]): 10
Morningglory plant response rating (morningglory; [12]): 80
Plant response rating, Morningglory (morningglory; [13]): 50
Morningglory plant response rating (morningglory; [14]): 90
Lambsquarters plant response rating (0 to 100 scale) (lambsquarters; [11]): 100
Lambsquarters plant response rating (lambsquarters; [12]): 80
Plant response rating, Lambsquarters (lambsquarters; [13]): 100
Lambsquarters plant response rating (lambsquarters; [14]): 90
Ducksalad plant response rating (ducksalad [8]): 90
Sedge, Umbrella plant response rating [9]: 90
Rice plant response rating (rice [10]): 90

CCN(C)C(=O)c1cncc(NC(=O)c2cc(C(C)(C)C)nn2CC)c1 [Compound 263]
Crabgrass, Large plant response rating (0 to 100 scale) (large crabgrass; [11]): 10
Plant response rating, Crabgrass, Large (large crabgrass; [13]): 60
Crabgrass, Large plant response rating (large crabgrass; [19]): 10
Crabgrass, Large plant response rating (large crabgrass; [14]): 20
Sedge, Umbrella plant response rating ([1]; 62 g ai/ha, scale 0 to 100): 0
Sedge, Umbrella plant response rating [1, 15]: 0
Sedge, Umbrella plant response rating [1, 16]: 30
Plant response rating, Sedge, Umbrella [1, 17]: 50
Rice plant response rating (rice [2]; 62 g ai/ha, scale 0 to 100): 0
Rice plant response rating (rice [2]; [15]): 0
Rice plant response rating (rice [2]; [16]): 0
Plant response rating, Rice (rice [2]; [17]): 25
Ducksalad plant response rating (ducksalad [3]; 62 g ai/ha, scale 0 to 100): 0
Ducksalad plant response rating (ducksalad [3]; [15]): 0
Ducksalad plant response rating (ducksalad [3]; [16]): 75
Plant response rating, Ducksalad (ducksalad [3]; [17]): 90
Cocklebur plant response rating (cocklebur; [19]): 0
Cocklebur plant response rating (cocklebur; [20]): 10
Barnyardgrass plant response rating (barnyardgrass [4]): 60
Corn plant response rating (0 to 100 scale) (corn; [11]): 0
Plant response rating, Corn (corn; [13]): 0
Corn plant response rating (corn; [19]): 0
Corn plant response rating (corn; [14]): 10
Velvetleaf plant response rating (0 to 100 scale) (velvetleaf; [11]): 10
Plant response rating, Velvetleaf (velvetleaf; [13]): 90
Velvetleaf plant response rating (velvetleaf; [19]): 20
Velvetleaf plant response rating (velvetleaf; [14]): 20
Foxtail, Giant plant response rating (0 to 100 scale) (giant foxtail; [11]): 0
Plant response rating, Foxtail, Giant (giant foxtail; [13]): 20
Foxtail, Giant plant response rating (giant foxtail; [19]): 0
Foxtail, Giant plant response rating (giant foxtail; [14]): 20
Barnyardgrass plant response rating (barnyardgrass [5]; [18]): 0
Barnyardgrass plant response rating (barnyardgrass [5]; [15]): 0
Barnyardgrass plant response rating (barnyardgrass [5]; [16]): 0
Plant response rating, Barnyardgrass (barnyardgrass [5]; [17]): 0
Wheat plant response rating (wheat; [19]): 10
Wheat plant response rating (wheat; [14]): 20
Rice plant response rating (0 to 100 scale) (rice [6]): 0
Plant response rating, Rice (rice [6]): 10
Pigweed plant response rating (0 to 100 scale) (pigweed; [11]): 80
Plant response rating, Pigweed (pigweed; [13]): 100
Pigweed plant response rating (pigweed; [19]): 60
Pigweed plant response rating (pigweed; [14]): 90
Barnyardgrass plant response rating (0 to 100 scale) (barnyardgrass [7]; [11]): 10
Plant response rating, Barnyardgrass (barnyardgrass [7]; [13]): 40
Barnyardgrass plant response rating (barnyardgrass [7]; [19]): 0
Barnyardgrass plant response rating (barnyardgrass [7]; [20]): 10
Surinam Grass plant response rating (0 to 100 scale) (Surinam grass; [11]): 10
Plant response rating, Surinam Grass (Surinam grass; [13]): 30
Surinam Grass plant response rating (Surinam grass; [19]): 10
Surinam Grass plant response rating (Surinam grass; [14]): 10
Oat, Wild plant response rating (wild oat; [19]): 10
Oat, Wild plant response rating (wild oat; [14]): 20
Blackgrass plant response rating (blackgrass; [19]): 10
Blackgrass plant response rating (blackgrass; [20]): 20
Morningglory plant response rating (0 to 100 scale) (morningglory; [11]): 0
Plant response rating, Morningglory (morningglory; [13]): 0
Morningglory plant response rating (morningglory; [19]): 0
Morningglory plant response rating (morningglory; [14]): 20
Lambsquarters plant response rating (0 to 100 scale) (lambsquarters; [11]): 70
Plant response rating, Lambsquarters (lambsquarters; [13]): 100
Lambsquarters plant response rating (lambsquarters; [19]): 70
Lambsquarters plant response rating (lambsquarters; [14]): 80
Ducksalad plant response rating (ducksalad [8]): 90
Sedge, Umbrella plant response rating [9]: 80
Rice plant response rating (rice [10]): 70
